In article PMC12675387, “Receptor interaction profiles of 4-alkoxy-2,6-dimethoxyphenethylamines (Ψ derivatives) and related amphetamines” (Frontiers in Pharmacology, 2025):

What was measured:
human 5-HT2B receptor = target: T1, human 5-HT2B receptor (Homo sapiens, UniProt P41595); assay: Activation potency and efficacy at the 5-HT2B receptor (Fluo-4 calcium, HEK 293 cells); format: cell-based; settings: for Emax: HEK293, relative to 5-HT (100%), read-out: h5-HT2B activation efficacy Emax ± SD
T1 construct: expressed in transfected cells; host or cells: HEK 293 cells
T1 sequence (P41595 whole entry): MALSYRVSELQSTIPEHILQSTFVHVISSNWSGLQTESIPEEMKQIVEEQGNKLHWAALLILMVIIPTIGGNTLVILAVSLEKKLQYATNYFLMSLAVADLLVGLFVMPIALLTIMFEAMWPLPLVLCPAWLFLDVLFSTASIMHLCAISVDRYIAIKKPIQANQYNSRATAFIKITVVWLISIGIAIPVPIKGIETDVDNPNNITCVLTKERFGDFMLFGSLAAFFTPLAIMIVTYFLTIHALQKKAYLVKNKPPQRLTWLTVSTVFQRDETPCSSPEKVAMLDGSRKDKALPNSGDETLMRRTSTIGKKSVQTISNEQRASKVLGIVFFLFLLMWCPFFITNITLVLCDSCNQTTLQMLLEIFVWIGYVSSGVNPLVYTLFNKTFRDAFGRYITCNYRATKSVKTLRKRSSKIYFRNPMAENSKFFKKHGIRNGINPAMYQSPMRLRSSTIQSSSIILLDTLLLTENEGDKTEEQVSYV
Procedure: The activation potency and efficacy at the 5-HT2B receptor were determined as previously described by [Luethi et al. (2018)]. In summary, HEK 293 cells stably transfected with the human 5-HT2B receptor were seeded in poly-D-lysine-coated 96 well plates at a density of 50,000 cells per well overnight at 37 °C in high glucose Dulbecco’s modified Eagle’s medium (DMEM; Invitrogen, Zug, Switzerland) supplemented with 10% fetal calf serum (non-dialyzed and heat-inactivated), 250 mg/L Geneticin, and 100 U/mL penicillin, and 100 μg/mL streptomycin (Gibco). The growth medium was removed by snap inversion and the cells were exposed to 100 μL calcium indication Fluo-4-solution (Molecular Probes, Eugene, OR, United States) for 45 min at 31 °C. Thereafter, the Fluo-4-solution was removed once again by snap inversion and was replaced with fresh 100 μL Fluo-4-solution. Next, the cells were washed with HBSS and 20 mM HEPES using the EMBLA cell washer and then exposed to the assay buffer (100 μL per well). Afterwards, 25 μL of test compounds diluted in assay buffer were added to the plate online. Dose–response curves were determined using nonlinear regression and EC50 values were calculated. The activation efficacy was calculated relative to the 5-HT activity (defined as 100%).

h5-HT2A receptor = h5-HT2A receptor (Homo sapiens, UniProt P28223); assay: Radioligand binding, 5-HT2A receptor ([3H]ketanserin); settings: for fold increase in 5-HT2A affinity over the 4-methoxy analog: pairs Ψ-2C-O-1/Ψ-2C-O-35 and TMA-6/Ψ-DODFMO; for Selectivity (binding ratio) 5-HT2A/5-HT2C: preference for 5-HT2A (Ki 5-HT2C divided by Ki 5-HT2A); for Selectivity (binding ratio) 5-HT2A/5-HT1A: preference for 5-HT2A (Ki 5-HT1A divided by Ki 5-HT2A)
h5-HT2A receptor, sequence (P28223 whole entry): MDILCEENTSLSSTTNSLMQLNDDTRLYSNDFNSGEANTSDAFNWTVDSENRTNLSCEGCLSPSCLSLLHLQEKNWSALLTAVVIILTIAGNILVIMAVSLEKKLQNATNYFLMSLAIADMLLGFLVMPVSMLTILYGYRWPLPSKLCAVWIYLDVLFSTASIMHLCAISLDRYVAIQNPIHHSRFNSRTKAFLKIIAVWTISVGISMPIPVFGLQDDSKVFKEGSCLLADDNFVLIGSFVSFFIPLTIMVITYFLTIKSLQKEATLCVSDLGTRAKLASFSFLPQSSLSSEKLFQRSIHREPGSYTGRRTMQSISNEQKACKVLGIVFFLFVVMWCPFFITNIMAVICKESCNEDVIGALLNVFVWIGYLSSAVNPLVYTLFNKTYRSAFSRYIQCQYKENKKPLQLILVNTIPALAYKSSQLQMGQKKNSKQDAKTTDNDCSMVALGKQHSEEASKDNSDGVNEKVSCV

rTAAR1 = rTAAR1 (Rattus norvegicus, UniProt Q923Y9); assay: Radioligand binding, rat TAAR1 ([3H]RO5166017)
rTAAR1, sequence (Q923Y9 whole entry): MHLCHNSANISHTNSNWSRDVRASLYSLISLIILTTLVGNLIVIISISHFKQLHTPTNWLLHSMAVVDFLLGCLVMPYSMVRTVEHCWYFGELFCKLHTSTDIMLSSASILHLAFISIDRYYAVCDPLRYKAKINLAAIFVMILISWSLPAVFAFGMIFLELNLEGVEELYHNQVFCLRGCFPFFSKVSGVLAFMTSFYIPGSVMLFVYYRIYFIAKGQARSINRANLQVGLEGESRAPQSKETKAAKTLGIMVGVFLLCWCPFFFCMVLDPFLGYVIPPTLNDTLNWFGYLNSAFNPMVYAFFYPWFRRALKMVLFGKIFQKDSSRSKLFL

hDAT = hDAT (Homo sapiens, UniProt Q01959); assay: Radioligand binding, DAT ([3H]WIN35,428)
hDAT, sequence (Q01959 whole entry): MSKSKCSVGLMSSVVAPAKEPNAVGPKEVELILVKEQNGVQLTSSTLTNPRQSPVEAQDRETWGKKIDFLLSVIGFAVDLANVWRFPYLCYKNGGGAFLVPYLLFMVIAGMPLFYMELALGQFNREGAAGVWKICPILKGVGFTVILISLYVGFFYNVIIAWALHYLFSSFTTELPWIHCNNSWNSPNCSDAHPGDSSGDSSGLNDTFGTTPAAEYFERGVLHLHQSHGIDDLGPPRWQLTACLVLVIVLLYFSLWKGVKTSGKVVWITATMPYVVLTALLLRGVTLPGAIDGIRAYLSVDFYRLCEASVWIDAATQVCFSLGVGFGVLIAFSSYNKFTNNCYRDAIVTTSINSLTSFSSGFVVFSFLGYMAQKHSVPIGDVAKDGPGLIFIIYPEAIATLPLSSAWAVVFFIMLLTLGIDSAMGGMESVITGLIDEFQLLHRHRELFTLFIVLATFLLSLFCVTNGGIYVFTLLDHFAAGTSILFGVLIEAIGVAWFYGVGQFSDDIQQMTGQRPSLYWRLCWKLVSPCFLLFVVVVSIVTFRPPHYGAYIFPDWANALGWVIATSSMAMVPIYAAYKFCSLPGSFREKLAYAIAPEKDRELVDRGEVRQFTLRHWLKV

hSERT = hSERT (Homo sapiens, UniProt P31645); assay: Radioligand binding, SERT ([3H]citalopram)
hSERT, sequence (P31645 whole entry): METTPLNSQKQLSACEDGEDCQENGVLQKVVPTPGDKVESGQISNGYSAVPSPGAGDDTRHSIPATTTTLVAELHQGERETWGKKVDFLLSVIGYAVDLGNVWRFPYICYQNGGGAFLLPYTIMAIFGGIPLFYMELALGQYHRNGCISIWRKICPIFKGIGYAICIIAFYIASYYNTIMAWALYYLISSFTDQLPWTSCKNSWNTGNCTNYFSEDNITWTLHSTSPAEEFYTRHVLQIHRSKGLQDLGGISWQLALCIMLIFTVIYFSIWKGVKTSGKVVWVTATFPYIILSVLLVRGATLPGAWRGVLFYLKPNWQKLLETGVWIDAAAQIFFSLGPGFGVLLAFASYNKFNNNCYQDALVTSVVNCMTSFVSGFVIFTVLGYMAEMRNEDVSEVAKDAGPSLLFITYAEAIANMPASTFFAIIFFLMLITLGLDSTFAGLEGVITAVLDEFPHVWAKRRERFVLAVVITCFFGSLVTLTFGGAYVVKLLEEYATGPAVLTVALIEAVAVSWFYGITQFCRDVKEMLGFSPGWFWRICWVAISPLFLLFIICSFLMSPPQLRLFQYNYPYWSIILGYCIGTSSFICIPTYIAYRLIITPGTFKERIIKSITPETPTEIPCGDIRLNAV

hNET = hNET (Homo sapiens, UniProt P23975); assay: Radioligand binding, NET (N-methyl-[3H]nisoxetine)
hNET, sequence (P23975 whole entry): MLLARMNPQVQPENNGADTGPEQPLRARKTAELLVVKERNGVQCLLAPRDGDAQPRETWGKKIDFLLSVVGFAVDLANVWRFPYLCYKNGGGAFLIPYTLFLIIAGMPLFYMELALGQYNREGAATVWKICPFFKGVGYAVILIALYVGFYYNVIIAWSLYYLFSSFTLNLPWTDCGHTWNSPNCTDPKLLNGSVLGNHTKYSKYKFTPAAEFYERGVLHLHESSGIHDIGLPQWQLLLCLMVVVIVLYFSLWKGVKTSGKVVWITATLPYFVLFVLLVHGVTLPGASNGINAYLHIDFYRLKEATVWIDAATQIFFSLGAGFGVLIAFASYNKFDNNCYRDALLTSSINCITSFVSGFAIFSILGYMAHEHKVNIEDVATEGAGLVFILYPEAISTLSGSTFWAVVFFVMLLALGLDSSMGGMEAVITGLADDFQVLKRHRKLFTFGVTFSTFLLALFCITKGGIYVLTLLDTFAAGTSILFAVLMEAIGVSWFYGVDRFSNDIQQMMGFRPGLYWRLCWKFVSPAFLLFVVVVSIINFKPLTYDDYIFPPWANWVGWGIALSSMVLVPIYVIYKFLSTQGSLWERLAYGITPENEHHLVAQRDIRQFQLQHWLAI

human 5-HT2A receptor = target: T2, human 5-HT2A receptor (Homo sapiens, UniProt P28223); assay: Activation potency and efficacy at the 5-HT2A receptor (FLIPR calcium, NIH-3T3 cells); format: cell-based; settings: for Emax: NIH3T3, relative to 5-HT (100%), read-out: h5-HT2A activation efficacy Emax ± SD
T2 construct: expressed in transfected cells; host or cells: NIH-3T3 mouse embryonic fibroblasts
T2 sequence (P28223 whole entry): as the sequence (P28223 whole entry) above
Procedure: The activation potency and efficacy at the 5-HT2A receptor were determined as previously described by [Luethi et al. (2018)]. In short, mouse embryonic fibroblasts (NIH-3T3 cells) stably transfected with the human 5-HT2A receptor were seeded in poly-D-lysine-coated 96 well plates at a density of 70,000 cells per 100 μL. Next, the cells were incubated in HEPES-Hank’s Balanced Salt Solution (HBSS) buffer (Gibco) for 1 h at 37 °C; the cells were then incubated with 100 μL of dye solution (fluorescence imaging plate reader [FLIPR] calcium 5 assay kit; Molecular Devices, Sunnyvale, CA, United States) per well for 1 h at 37 °C. The plate was then inserted into the FLIPR and 25 μL of the test compounds diluted in HEPES-HBSS buffer containing […] probenecid were added online. Increase of the fluorescence signal was measured and the activation potency (EC50) was calculated from the dose-response curves using nonlinear regression. The activation efficacy was calculated relative to 5-HT activity (defined as 100% activity).

hα2A adrenergic receptor = target: T3, hα2A adrenergic receptor (Homo sapiens, UniProt P08913); assay: Radioligand binding, α2A adrenergic receptor ([3H]rauwolscine)
T3 sequence (P08913 1-465): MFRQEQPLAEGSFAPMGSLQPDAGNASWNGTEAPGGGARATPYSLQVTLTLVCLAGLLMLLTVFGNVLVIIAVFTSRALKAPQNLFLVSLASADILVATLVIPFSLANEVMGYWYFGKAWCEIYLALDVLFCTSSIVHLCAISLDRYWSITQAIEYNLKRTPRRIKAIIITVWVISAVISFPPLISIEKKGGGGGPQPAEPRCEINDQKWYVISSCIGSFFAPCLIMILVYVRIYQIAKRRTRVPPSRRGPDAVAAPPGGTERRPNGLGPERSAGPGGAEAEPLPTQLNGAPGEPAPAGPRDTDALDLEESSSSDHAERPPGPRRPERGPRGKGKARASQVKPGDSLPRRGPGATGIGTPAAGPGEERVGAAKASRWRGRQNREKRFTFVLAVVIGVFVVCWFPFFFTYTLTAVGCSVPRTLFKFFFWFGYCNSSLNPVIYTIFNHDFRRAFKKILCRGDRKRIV

h5-HT2C receptor = target: T4, h5-HT2C receptor (Homo sapiens, UniProt P28335); assay: Radioligand binding, 5-HT2C receptor ([3H]mesulergine)
T4 sequence (P28335 33-458): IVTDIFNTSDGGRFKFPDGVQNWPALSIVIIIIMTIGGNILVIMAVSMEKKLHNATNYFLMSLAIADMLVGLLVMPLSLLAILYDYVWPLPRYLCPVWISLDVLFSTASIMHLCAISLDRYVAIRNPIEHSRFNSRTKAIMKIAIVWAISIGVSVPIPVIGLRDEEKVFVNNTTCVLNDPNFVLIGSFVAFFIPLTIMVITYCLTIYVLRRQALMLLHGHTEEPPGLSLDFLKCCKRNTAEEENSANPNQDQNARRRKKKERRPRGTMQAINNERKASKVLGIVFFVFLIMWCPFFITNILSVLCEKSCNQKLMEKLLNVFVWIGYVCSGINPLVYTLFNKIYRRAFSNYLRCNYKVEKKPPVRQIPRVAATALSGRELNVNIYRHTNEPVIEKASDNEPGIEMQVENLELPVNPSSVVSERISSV

mTAAR1 = mTAAR1 (Mus musculus, UniProt Q923Y8); assay: Radioligand binding, mouse TAAR1 ([3H]RO5166017)
mTAAR1, sequence (Q923Y8 whole entry): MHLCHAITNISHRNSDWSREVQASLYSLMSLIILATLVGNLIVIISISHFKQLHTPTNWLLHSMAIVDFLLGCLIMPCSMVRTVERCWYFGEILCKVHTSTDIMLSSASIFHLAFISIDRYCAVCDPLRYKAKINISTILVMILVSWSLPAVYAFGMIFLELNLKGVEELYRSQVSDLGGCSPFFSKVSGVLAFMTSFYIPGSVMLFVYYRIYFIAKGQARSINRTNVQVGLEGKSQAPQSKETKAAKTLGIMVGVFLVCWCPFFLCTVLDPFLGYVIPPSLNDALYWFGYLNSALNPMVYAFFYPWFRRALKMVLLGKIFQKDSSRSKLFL

Row | Compound | EC50 (human 5-HT2B receptor) | Emax (human 5-HT2B receptor) | Ki (h5-HT2A receptor) | fold increase in 5-HT2A affinity over the 4-methoxy analog (h5-HT2A receptor) | Selectivity (binding ratio) 5-HT2A/5-HT2C (h5-HT2A receptor) | Ki (rTAAR1) | Ki (hDAT; hDAT Ki ± SD, [3H]WIN35,428) | Ki (hSERT; hSERT Ki ± SD, [3H]citalopram) | Ki (hNET) | EC50 (human 5-HT2A receptor) | Emax (human 5-HT2A receptor) | Ki (hα2A adrenergic receptor) | Ki (h5-HT2C receptor) | Ki (mTAAR1) | Selectivity (binding ratio) 5-HT2A/5-HT1A (h5-HT2A receptor) | type of agonism at the 5-HT2A receptor (human 5-HT2A receptor) | fold difference in 5-HT2A receptor affinity between Ψ derivative and its 2,4,5-trisubstituted counterpart (h5-HT2A receptor; TMA-6 vs TMA-2, Ψ-2C-O-16 vs 2C-O-16, Ψ-MALM vs MALM: higher affinity of the Ψ derivative) | Ki (hDAT; DAT Ki) | Ki (hSERT; SERT Ki, no binding observed) | fold increase in 5-HT2A activation potency over non-fluorinated counterpart Ψ-2C-O-2 (human 5-HT2A receptor)
1 | COc1cc(OC(F)F)cc(OC)c1CCN [Ψ-2C-O-35, 4-(2,2-difluoromethoxy)-2,6-dimethoxyphenethylamine] | 300 ± 230 nM | 20 ± 13% | 72 ± 18 nM | 3–4 fold | 7.1 | 51 ± 4 nM | > 8.5 µM | > 7.5 µM | > 8.8 µM | 260 ± 200 nM | 16 ± 2% | 450 ± 70 nM | 510 ± 140 nM | 680 ± 120 nM |  |  |  |  |  | 
2 | C=C(C)COc1cc(OC)c(CC(C)N)c(OC)c1 (stereo not shown) [Ψ-MMALM, 2,6-dimethoxy-4-methallyloxyamphetamine] | 93 ± 26 nM | 33 ± 11% | 52 ± 10 nM |  | 5.6 | 32 ± 5 nM | 5.7 µM | > 7.5 µM | > 8.8 µM | 58 ± 28 nM | 68 ± 9% | 1400 nM | 290 ± 90 nM | 250 ± 50 nM | >108 | partial agonists |  |  |  | 
3 | COc1cc(OC(F)F)cc(OC)c1CC(C)N (stereo not shown) [Ψ-DODFMO, 4-(2,2-difluoromethoxy)-2,6-dimethoxyamphetamine] | 160 ± 50 nM | 58 ± 23% | 84 ± 23 nM | 3–4 fold | 21 | 140 ± 40 nM | > 8.5 µM | > 7.5 µM | > 8.8 µM | 300 ± 100 nM | 54 ± 4% | 2300 nM | 1800 nM | 860 ± 40 nM | 61 |  |  |  |  | 
4 | C=CCOc1cc(OC)c(CC(C)N)c(OC)c1 (stereo not shown) [Ψ-MALM, 4-allyloxy-2,6-dimethoxyamphetamine] | 55 ± 24 nM | 69 ± 19% | 75 ± 11 nM |  | 10 | 58 ± 11 nM | > 8.5 µM | > 7.5 µM | > 8.8 µM | 180 ± 70 nM | 66 ± 6% | 1800 nM | 780 ± 330 nM | 270 ± 50 nM | >75 | partial agonists | 2–5 fold |  |  | 
5 | COc1cc(OCC(F)(F)F)cc(OC)c1CCN [Ψ-2C-O-22, 2,6-dimethoxy-4-(2,2,2-trifluoroethoxy)phenethylamine] | > 10000 nM |  | 600 ± 60 nM |  | 3.7 | 21 ± 2 nM | > 8.5 µM | > 7.5 µM | > 8.8 µM | 3400 nM | 41 ± 8% | 1500 nM | 2200 nM | 210 ± 40 nM | 4 |  |  |  |  | 
6 | CCOc1cc(OC)c(CCN)c(OC)c1 [Ψ-2C-O-2, 2,6-dimethoxy-4-ethoxyphenethylamine] | 2100 nM | 27 ± 8% | 400 ± 280 nM |  | 3.8 |  | > 8.5 µM | > 7.5 µM | > 8.8 µM | 99 ± 8 nM | 53 ± 4% | 670 ± 60 nM | 1500 nM | 230 ± 20 nM | 1.8 |  |  |  |  | 
7 | COc1cc(OCCF)cc(OC)c1CC(C)N (stereo not shown) [Ψ-MFEM, 2,6-dimethoxy-4-(2-fluoroethoxy)amphetamine] | > 10000 nM |  | 1400 nM |  | 7.1 | 52 ± 18 nM | > 8.5 µM | > 7.5 µM | > 8.8 µM | 1300 nM | 37 ± 2% | 4100 nM | 10000 nM | 560 ± 10 nM | >4 |  |  |  |  | 
8 | COc1cc(OCc2ccccc2)cc(OC)c1CC(C)N (stereo not shown) [Ψ-MBnM, 4-benzyloxy-2,6-dimethoxyamphetamine] | > 10000 nM |  | 21 ± 2 nM |  | 13 | 6.1 ± 0.7 nM | 1.8 µM | > 7.5 µM | 7.1 µM | 430 ± 150 nM | 39 ± 6% | 2000 nM | 270 ± 50 nM | 190 ± 10 nM |  |  |  | 1.3 to 1.8 µM | < 7.5 µM | 
9 | COc1cc(OCC(F)F)cc(OC)c1CC(C)N (stereo not shown) [Ψ-MDFEM, 4-(2,2-difluoroethoxy)-2,6-dimethoxyamphetamine] | > 10000 nM |  | 950 ± 240 nM |  | 10 | 66 ± 13 nM | 5.4 µM | > 7.5 µM | > 8.8 µM | 1100 nM | 34 ± 7% | 3300 nM | 9500 nM | 500 ± 70 nM | >6 |  |  |  |  | 
10 | COc1cc(OCCF)cc(OC)c1CCN [Ψ-2C-O-21, 2,6-dimethoxy-4-(2-fluoroethoxy)phenethylamine] | > 10000 nM |  | 970 ± 190 nM |  | 3.6 | 19 ± 1 nM | > 8.5 µM | > 7.5 µM | > 8.8 µM | 32 ± 2 nM | 55 ± 14% |  | 3500 nM | 320 ± 30 nM | 1.6 |  |  |  |  | 3 fold
11 | COc1cc(OCc2ccccc2)cc(OC)c1CCN [Ψ-2C-O-27, 4-benzyloxy-2,6-dimethoxyphenethylamine] | > 10000 nM |  | 8 ± 1 nM |  | 15 | 3.1 ± 0.2 nM | 1.3 µM | > 7.5 µM | 6.2 µM | 410 ± 160 nM | 42 ± 8% | 410 ± 20 nM | 110 ± 10 nM | 610 ± 6 nM | 280 |  |  | 1.3 to 1.8 µM | < 7.5 µM | 
